Results: patent US20130259807A1, “CELL CULTURE SCREEN FOR AGENTS THAT CONTROL ADIPOGENESIS AND MYOFIBROBLAST DIFFERENTIATION” (THE REGENTS OF THE UNIVERSITY OF CALIFORNIA, priority 2010, published 2013)

Test system: rat mesenchymal stem cells
Test: Culture screening adipogenesis assay (lipid accumulation, Oil Red O / BODIPY)
Assay type: cell-based
Details: insulin in the progressing medium, positive control set as 100%
Description: To prepare adipogenesis initiation/priming medium, a IBMX standard solution ([…]) is diluted 1:1000 and a dexamethasone standard solution (1 μM dexamethasone standard solution (in DMSO)) is diluted 1:10,000 in DMEM+10% FCS. A typical cocktail of antibiotics can be added to restrict microbe growth. This initiation medium can be stored for up to 6 weeks at 4° C.
To prepare positive control progression medium, a standard insulin solution (10 μg/ml insulin) is diluted 1:1000 in DMEM+10% FCS. Antibiotics of choice are added to control growth of microbes. This control progression medium can be stored for up to 6 weeks at 4° C.
To prepare experimental/test (e.g., RHAMM blocking or other experimental adipogenic promoting reagent) progression medium, test agents are provided in a standard solution (e.g. 0.001-10 μg RHAMM antibody, peptide mimetic(s), or other test agent(s)). The test agent solution is diluted to the desired concentration (e.g. 1 ng-10 μg RHAMM peptide) in DMEM+10% FCS. […]
Cells for the adipogenesis screen can be plated as follows: The cells are trypsinized and then resuspended in 1 ml DMEM+10% CS to neutralize the trypsin. The cells are then counted. […]
The dye can be extracted with methanol:ethanol (1:1) mixture and read oil red O at 520 nm using an ELISA plate reader or for BODIPY® using a fluorometer that detects FITC.

insulin
Extent of lipid accumulation (Oil Red O at 520 nm): 100%
